The values that follow are results of earlier work, collected in patent US20040131544A1, “In vivo imaging” (priority 1999, published 2004).

For this data set the following is noted: background statement; Doze, et al., Nuclear Medicine and Biology 27:315-319 (2000).

Each structure is given as a SMILES string.

Regarding `CC(C)NCC(O)COc1cccc2[nH]c3ccccc3c12` (stereo not shown) [carazolol], the “adverse properties (mutagenicity / toxicity)” value was “not toxic”.
